# Legend:
# SARS-CoV-2 = test system: SARS-CoV-2; parameters: method as in ref 6, Sa-ngiamsuntorn et al., (2021); details: Sa-ngiamsuntorn et al., (2021); cited from earlier work
# physchem = type: physicochemical
# Protocol: To find the solubility of AGP in the optimized SMEDDS (highest amount of AGP that can be loaded into the optimized SMEDDS), an excess amount of A. paniculata extract was added to the 1.5 mL of the optimized SMEDDS and shaken at 37 °C 120 rpm for 72 h in an incubator shaker. Then, the AGPE-loaded optimized SMEDDS was centrifuged at 14,000 rpm for 30 min to separate the extract powder from the AGP-extracted SMEDDS. The supernatant was collected and diluted with methanol before the analysis of AGP content using HPLC. HPLC analysis with UV detection was used to quantify the content of AGP. An Agilent® 1200 (Santa Clara, CA, USA) with an Agilent® ZORBAX Eclipse XDB-C18 (4.6 × 150 mm, 5 µm) column was used. The mobile phase was methanol:water (65:35), and the injection volume was 20 µL. The flow rate was set at 0.8 mL/min, and the detection wavelength was 228 nm. The standard curve of AGP was constructed, ranging from 5 to 200 µg/mL.
# [1] = parameters: method as in ref 53, Kim et al., (2019); details: Kim et al., (2019), cited from earlier work
SMILES,"anti-SARS-CoV-2 activity, IC50 (SARS-CoV-2)",solubility (physchem) [mg/mL],"solubility at 72 h (physchem; 37 °C, thermodynamic from solid) [mg/mL]",Time within which dissolution was completed ([1]; SMEDDS formulation) [min],"Drug powder dissolved ([1]; drug powder, after 60 min) [%]"
"C=C1CC[C@@H]2[C@](C)(CO)[C@H](O)CC[C@@]2(C)[C@@H]1C/C=C1/C(=O)OC[C@H]1O [AGP, andrographolide]",equivalent to the antiviral agent remdesivir,~42,~38,,
CN(Cc1cnc2nc(N)nc(N)c2n1)c1ccc(C(=O)N[C@@H](CCC(=O)O)C(=O)O)cc1 [methotrexate],,,,≤ 20,53

# From PMC10893082, “Development and Optimization of Andrographis paniculata Extract-Loaded Self-Microemulsifying Drug Delivery System Using Experimental Design Model” (Pharmaceutics, 2024)
